One series concerns the target dopamine D2 receptors (Rattus norvegicus, UniProt P61169). The series can be described thus: Inhibition of 3H-spiroperidol binding to dopamine D2 receptors in rat brain in vitro. The conditions noted are these: 3H-spiroperidol 0.5 nM, membranes from rat corpus striatum; read-out: 3H Spiroperidole (D2) binding IC50. As to the method:
Inhibition of 3H-spiroperidol Binding to Dopamine D2 Receptors in Rat Brain in vitro
By this method the inhibition by drugs of the binding of the D2 antagonist ^3H-spiroperidol (0.5 nM) to D2 receptors in membranes from rat corpus striatum is determined in vitro. Accordingly, this is a test for affinity for the dopamine D2 receptor.

A further series addresses T1, 5-HT1A receptors (Rattus norvegicus, UniProt P19327).
T1 sequence (P19327 1-422): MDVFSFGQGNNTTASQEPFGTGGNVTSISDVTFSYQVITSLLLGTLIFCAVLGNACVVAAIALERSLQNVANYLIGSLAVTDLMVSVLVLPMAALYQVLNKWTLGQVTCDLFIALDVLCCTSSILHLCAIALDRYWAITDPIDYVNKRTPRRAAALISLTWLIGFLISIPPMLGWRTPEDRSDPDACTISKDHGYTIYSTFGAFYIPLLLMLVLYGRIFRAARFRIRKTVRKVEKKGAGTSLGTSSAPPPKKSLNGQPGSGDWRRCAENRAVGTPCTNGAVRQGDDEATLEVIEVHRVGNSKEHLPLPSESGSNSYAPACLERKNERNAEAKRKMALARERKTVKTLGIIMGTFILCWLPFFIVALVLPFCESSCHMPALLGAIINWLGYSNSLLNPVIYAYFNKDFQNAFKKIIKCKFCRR
The series can be described thus: Inhibition of 3H-8-OH-DPAT binding to serotonin 5-HT1A receptors in rat brain in vitro. To be noted: 3H-8-OH-DPAT 1 nM, membranes from rat brain minus cerebellum. Details: 5-HT1A receptors in membranes from rat brain minus cerebellum; from tissue; host or cells: rat brain minus cerebellum (membranes). As to the method: Inhibition of ^3H8-OH-DPAT Binding to Serotonin 5-HT1A Receptors in Rat Brain in vitro
By this method the inhibition by drugs of the binding of the 5-HT1A agonist 3H-8-OH-DPAT (1 nM) to 5-HT1A receptors in membranes from rat brain minus cerebellum is determined in vitro. Accordingly, this is a test for affinity for the 5-HT1A receptor. The test was performed as described by Hyttel et al., Drug Dev. Res. 1988, 15, 389-404.

A short description of the next series: Cataleptogenic effect. Also on record: species or system rats. To be noted: rat, in vivo; 1-6 h, sc; read-out: Catalepsy ED50. From the text: Evaluation of cataleptogenic effects of the compounds of the invention was made according to the method of Sanchez, C. et al.; Drug Dev. Res. 1991, 22, 239-250.

Melting point, IC50 and ED50 data for 23 molecules are collected here from patent publication US6514993B1, “Serotonin 5-HT1A and dopamin D2 receptor ligands” (H. Lundbeck A/S, priority 1994, dated 2003).

pIC50: −log10 of the molar value. Where a name gives a salt, the structure may show the parent alone.

dopamine D2 receptors, sequence (P61169 1-415 isoform P61169-2): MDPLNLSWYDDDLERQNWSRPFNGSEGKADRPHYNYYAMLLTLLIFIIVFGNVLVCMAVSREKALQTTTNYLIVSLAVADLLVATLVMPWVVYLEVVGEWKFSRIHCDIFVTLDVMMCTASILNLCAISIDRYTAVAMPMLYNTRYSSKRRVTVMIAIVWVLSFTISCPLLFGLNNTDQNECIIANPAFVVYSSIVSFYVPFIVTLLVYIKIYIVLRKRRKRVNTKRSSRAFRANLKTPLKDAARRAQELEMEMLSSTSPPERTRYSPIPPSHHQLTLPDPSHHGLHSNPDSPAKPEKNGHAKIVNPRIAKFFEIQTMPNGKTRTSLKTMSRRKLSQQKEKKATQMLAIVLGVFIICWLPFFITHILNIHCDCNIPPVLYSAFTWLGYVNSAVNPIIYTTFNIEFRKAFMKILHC

Molecule `CC(C)(C)COc1ccccc1C1CCN(CCCCN2CCN(C3CCCCC3)C2=O)CC1.O=C(O)C(=O)O` registered a melting point of 162 to 168 °C.
On the same count and under the same terms, under `CC(C)Oc1ccccc1C1CCN(CCCCn2ccn(C34CC5CC(CC(C5)C3)C4)c2=O)CC1.O=C(O)C(=O)O` stands 116 to 122 °C.
Same read-out and setting: under `CC(C)Oc1ccccc1C1=CCN(CCCCn2ccn(C34CC5CC(CC(C5)C3)C4)c2=O)CC1.O=C(O)C(=O)O` stands 104 to 109 °C; under `O=C1N(CCCCN2CCN(c3ccccc3OS(=O)(=O)C(F)(F)F)CC2)CCN1C1CCCCC1` (as salt: hydrochloride) [Compound 7b, 3-Cyclohexyl-1-[4-[4-[2-(2-trifluoromethylsulfonyloxy)phenyl]-1-piperazinyl]butan-1-yl]-2-imidazolidinone, hydrochloride], 153 to 154 °C.
For `CC(C)Oc1ccccc1N1CCN(CCCCN2CCN(C3CCCCC3)C2=O)CC1.O=C(O)C(=O)O` [Compound 4a, 3-Cyclohexyl-1-[4-[4-[2-(2-propyloxy)phenyl]-1-piperazinyl]butan-1-yl]-2-imidazolidinone, Oxalate], the pIC50 is 8.19 at dopamine D2 receptors and 8.74 at 5-HT1A receptors. Further, the ED50 in “Cataleptogenic effect” was > 38 µmol/kg.
Turning to `CC(C)Oc1ccccc1N1CCN(CCCCN2CCN(c3ccc(F)cc3)C2=O)CC1` [Compound 4b, 3-(4-Fluorophenyl)-1-[4-[4-[2-(2-propyloxy)phenyl]-1-piperazinyl]butan-1-yl]-2-imidazolidinone], the melting point was in the range of 135 to 137 °C. In addition, the pIC50 on dopamine D2 receptors is 8.41. At 5-HT1A receptors, this molecule gave a negative-log IC50 (pIC50) of 8.66. Besides, the ED50 in “Cataleptogenic effect” was > 44 µmol/kg.
For `Cl.Cl.O=C1N(CCCCN2CCN(c3ccccc3OC3CCCC3)CC2)CCN1C1CCCCC1` [Compound 4c, 3-Cyclohexyl-1-[4-[4-(2-cyclopentyloxyphenyl)-1-piperazinyl]butan-1-yl]-2-imidazolidinone, dihydrochloride], in that order: 182 to 193 °C, 7.89, 8.27 and > 37 µmol/kg.
Molecule `O=C1N(CCCCN2CCN(c3ccccc3OC3CCCC3)CC2)CCN1c1ccc(F)cc1` [Compound 4d, 1-[4-[4-(2-Cyclopentyloxyphenyl)-1-piperazinyl]butan-1-yl]-3-(4-fluorophenyl)-2-imidazolidinone] returned a melting point of 111 to 116 °C. Further, the pIC50 on dopamine D2 receptors is 7.82. Moreover, the pIC50 on 5-HT1A receptors was 8.40. The ED50 in the series “Cataleptogenic effect” is > 42 µmol/kg.
As for `CC(C)Oc1ccccc1N1CCN(CCCN2CCN(c3ccccc3)C2=O)CC1` [Compound 4e, 1-[3-[4-(2-(2-propyloxy)phenyl)-1-piperazinyl]-1-propyl]-3-phenyl-2-imidazolidinone], the melting point fell in the range of 167 to 168 °C. Besides, the pIC50 at dopamine D2 receptors is 7.62. The same molecule gave a pIC50 at 5-HT1A receptors of 7.40. In addition, the ED50 in the series “Cataleptogenic effect” was > 34 µmol/kg.
As for `CC(C)Oc1ccccc1C1CCN(CCCCN2CCN(c3ccc(F)cc3)C2=O)CC1.O=C(O)C(=O)O` [Compound 6a, 3-(4-Fluorophenyl)-1-[4-[4-[2-(2-propyloxy)phenyl]-1-piperidinyl]butan-1-yl]-2-imidazolidinone, Oxalate], the pIC50 was 8.10 on dopamine D2 receptors and 8.32 at 5-HT1A receptors. Also, the ED50 in “Cataleptogenic effect” was > 44 µmol/kg.
Turning to `CC(C)Oc1ccccc1C1CCN(CCCCN2CCN(C3CCCCC3)C2=O)CC1.O=C(O)C(=O)O` [Compound 6b, 3-Cyclohexyl-1-[4-[4-[2-(2-propyloxy)phenyl]-1-piperidinyl]butan-1-yl]-2-imidazolidinone, oxalate], the melting point was 138 to 141 °C. Besides, on dopamine D2 receptors, the pIC50 is 8.06. Also, the pIC50 at 5-HT1A receptors was 8.27. The ED50 in “Cataleptogenic effect” is > 38 µmol/kg.
Molecule `CC(C)Oc1ccccc1C1CCN(CCCN2CCN(C3CCCCC3)C2=O)CC1.O=C(O)C(=O)O` [Compound 6c, 3-Cyclohexyl-1-[3-[4-[2-(2-propyloxy)phenyl]-1-piperidinyl]-1-propyl]-2-imidazolidinone, oxalate] showed a melting point of 136 to 139 °C. Moreover, at dopamine D2 receptors, the pIC50 was 6.96. The pIC50 on 5-HT1A receptors was 7.46.
For the molecule `CC(C)Oc1ccccc1C1CCN(CCCCN2CCN(C(C)C)C2=O)CC1.O=C(O)C(=O)O` [Compound 6d, 3-(2-Propyl)-1-[4-[4-[2-(2-propyloxy)phenyl]-1-piperidinyl]-1-butyl]-2-imidazolidinone, oxalate], the melting point lay within 82 to 84 °C. Moreover, the pIC50 at dopamine D2 receptors is 8.11. For the same molecule, on 5-HT1A receptors, the pIC50 is 8.30. Besides, the ED50 in “Cataleptogenic effect” was > 41 µmol/kg.
`CC(C)Oc1ccccc1C1CCN(CCCCCCN2CCN(C3CCCCC3)C2=O)CC1.O=C(O)C(=O)O` [Compound 6e, 3-Cyclohexyl-1-[6-[4-[2-(2-propyloxy)phenyl]-1-piperidinyl]-1-hexyl]-2-imidazolidinone, oxalate] registered a melting point of 77 to 79 °C. Also, the pIC50 at dopamine D2 receptors is 7.80. This molecule had a pIC50 on 5-HT1A receptors of 7.70. In addition, the ED50 in the series “Cataleptogenic effect” was > 33 µmol/kg.
`O=C(O)C(=O)O.O=C1N(CCCCN2CCC(c3ccccc3OCC3CC3)CC2)CCN1C1CCCCC1` [Compound 6f, 3-Cyclohexyl-1-[4-[4-[2-(cyclopropylmethoxy)phenyl]-1-piperidinyl]butan-1-yl]-2-imidazolidinone, oxalate]: the melting point fell in the range of 186 to 193 °C. The negative logarithm of the IC50 (pIC50) on dopamine D2 receptors is 7.43. In addition, the pIC50 on 5-HT1A receptors was 7.59.
As for `CC(C)Oc1ccccc1C1CCN(CCCCn2ccn(C3CCCCC3)c2=O)CC1.O=C(O)C(=O)O` [Compound 6h, 3-Cyclohexyl-1-[4-[4-[2-(2-propyloxy)phenyl]-1-piperidinyl]butan-1-yl]-1,3-dihydroimidazol-2-one, oxalate], the melting point was in the range of 68 to 71 °C. Also, the negative-log IC50 (pIC50) on dopamine D2 receptors is 8.00. At 5-HT1A receptors, this molecule gave a pIC50 of 8.39. In addition, the ED50 in the series “Cataleptogenic effect” is > 38 µmol/kg.
With `O=C1N(CCCCN2CCC(c3ccccc3OS(=O)(=O)C(F)(F)F)CC2)CCN1c1ccc(F)cc1` [Compound 7a, 3-(4-Fluorophenyl)-1-[4-[4-[2-(2-trifluoromethylsulfonyloxy)phenyl]-1-piperidinyl]butan-1-yl]-2-imidazolidinone], the pIC50 at dopamine D2 receptors was 7.39; on 5-HT1A receptors, 7.43.
As to `O=C1N(CCCCN2CCN(c3ccccc3OS(=O)(=O)C(F)(F)F)CC2)CCN1C1CCCCC1` [Compound 7b, 3-Cyclohexyl-1-[4-[4-[2-(2-trifluoromethylsulfonyloxy)phenyl]-1-piperazinyl]butan-1-yl]-2-imidazolidinone, hydrochloride], the pIC50 at dopamine D2 receptors was 7.31; at 5-HT1A receptors it was 7.38. Besides, the ED50 in the series “Cataleptogenic effect” is > 35 µmol/kg.
The molecule `O=C1N(CCCCN2CCN(c3ccccc3OS(=O)(=O)C(F)(F)F)CC2)CCN1c1ccc(F)cc1` [Compound 7c, 3-(4-Fluorophenyl)-1-[4-[4-[2-(2-trifluoromethylsulfonyloxy)phenyl]-1-piperazinyl]butan-1-yl]-2-imidazolidinone] registered a melting point of 68 to 70 °C. The pIC50 on dopamine D2 receptors was 7.24. The same molecule showed a pIC50 on 5-HT1A receptors of 7.82. In addition, the ED50 in “Cataleptogenic effect” is > 37 µmol/kg.
With `CC(C)Oc1ccccc1C1=CCN(CCCCN2CCN(C3CCCCC3)C2=O)CC1.O=C(O)C(=O)O` [Compound 9a, 3-Cyclohexyl-1-[4-[4-[2-(2-propyloxy)phenyl]-1,2,3,6-tetrahydropyridin-1-yl]butan-1-yl]-2-imidazolidinone Oxalate], the pIC50 was 8.06 on dopamine D2 receptors and 8.05 at 5-HT1A receptors. In addition, the ED50 in the series “Cataleptogenic effect” is > 38 µmol/kg.
In turn, `CC(C)Oc1ccccc1C1=CCN(CCCCN2CCN(c3ccc(F)cc3)C2=O)CC1.O=C(O)C(=O)O` [Compound 9b, 3-(4-Fluorophenyl)-1-[4-[4-[2-(2-propyloxy)phenyl]-1,2,3,6-tetrahydropyridin-1-yl]butan-1-yl]-2-imidazolidinone oxalate] showed a melting point of 150 to 152 °C. In addition, the pIC50 at dopamine D2 receptors was 7.96. Moreover, the pIC50 at 5-HT1A receptors is 8.55. For the same molecule, in “Cataleptogenic effect”, the ED50 is > 37 µmol/kg.
As for `CC(C)Oc1ccccc1C1=CCN(CCCCn2ccn(C3CCCCC3)c2=O)CC1` [Compound 9d, 3-Cyclohexyl-1-[4-[4-[2-(2-propyloxy)phenyl]-1,2,3,6-tetrahydropyridin-1-yl]butan-1-yl]-2,3-dihydroimidazol-2-one], the values for the pIC50 at dopamine D2 receptors and on 5-HT1A receptors were 7.57 and 7.59, respectively.
For `O=C(CCCN1CCC(O)(c2ccc(Cl)cc2)CC1)c1ccc(F)cc1` [haloperidol, reference compound], in the series “Cataleptogenic effect”, the ED50 is 0.36 µmol/kg.
